SMILES strings stand for the structures.

In patent US10874743B2, “IRAK degraders and uses thereof” (Kymera Therapeutics, Inc., priority 2017, dated 2020) one finds DC50 data, which are given here for 26 compounds.

The experiment has as its target T1, IRAK4 (Homo sapiens, UniProt Q9NWZ3).
T1 sequence (Q9NWZ3 1-460): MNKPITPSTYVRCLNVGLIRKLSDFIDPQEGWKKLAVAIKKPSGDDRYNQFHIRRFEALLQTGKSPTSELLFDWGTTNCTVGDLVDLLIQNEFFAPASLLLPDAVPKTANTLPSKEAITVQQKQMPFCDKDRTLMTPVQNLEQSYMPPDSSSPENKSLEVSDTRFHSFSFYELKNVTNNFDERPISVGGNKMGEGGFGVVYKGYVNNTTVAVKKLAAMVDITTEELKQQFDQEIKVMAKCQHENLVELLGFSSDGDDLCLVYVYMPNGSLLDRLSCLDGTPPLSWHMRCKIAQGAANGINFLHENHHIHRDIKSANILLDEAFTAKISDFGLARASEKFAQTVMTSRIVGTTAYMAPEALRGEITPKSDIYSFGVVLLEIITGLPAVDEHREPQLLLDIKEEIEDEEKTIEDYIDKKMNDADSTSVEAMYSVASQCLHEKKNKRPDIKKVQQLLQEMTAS
In words: OCI-LY-10 MSD assay for IRAK4 DC50. Set-up: endogenous in cells; host or cells: OCI-LY10. The conditions noted are these: OCI-LY10 cells, 4 hr incubation, concentration required to degrade 50% of protein. The class given is cell-based. Put shortly:
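OCI-Ly10 cells were exposed to compound for 4 hr across a 3-fold, 8-point dilution series. Lysates were made in RIPA buffer, and IRAK4 remaining was measured by MSD sandwich immunoassay with anti-IRAK4 capture and detection antibodies. DC50 was taken from a four-parameter logistic fit.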
By DC50 is commonly meant the concentration giving 50% degradation. Regarding `Cc1ncsc1-c1ccc(CNC(=O)[C@@H]2C[C@@H](O)CN2C(=O)[C@@H](NC(=O)COCCOCCOCCOCCNC(=O)c2nn(C)cc2NC(=O)c2coc(-c3ccnc(NCC(F)(F)F)c3)n2)C(C)(C)C)cc1` [I-299], the DC50 was > 1000 nM. Next, `O=C1CCC(N2C(=O)c3cccc(NCCOCCOCCNC(=O)c4ccc(-n5cc(NC(=O)c6coc(-c7ccnc(NCC(F)(F)F)c7)n6)c(C(F)F)n5)cc4)c3C2=O)C(=O)N1` (centres unmarked) [I-261]: 100 to 500 nM.

In the case of `Cc1ncsc1-c1ccc(CNC(=O)[C@@H]2C[C@@H](O)CN2C(=O)[C@@H](NC(=O)COCCOCCOCCNCc2ccc(-n3cc(NC(=O)c4coc(-c5ccnc(NCC(F)(F)F)c5)n4)c(C(N)=O)n3)cc2)C(C)(C)C)cc1` [I-414], the DC50 lay in the range of 100 to 500 nM. Next, `O=C1CCC(N2C(=O)c3cccc(NC4CCN(CCOCCNC(=O)c5ccc(-n6cc(NC(=O)c7coc(-c8ccnc(NCC9CC9)c8)n7)c(C(F)F)n6)cc5)CC4)c3C2=O)C(=O)N1` (centres unmarked) [I-268]: < 50 nM; `Cn1cc(NC(=O)c2coc(-c3ccnc(NCC(F)(F)F)c3)n2)c(CNCCCOCCCOCCCNc2cccc3c2C(=O)N(C2CCC(=O)NC2=O)C3=O)n1` (centres unmarked) [I-412]: > 1000 nM. Regarding `Cn1c(=O)n(C2CCC(=O)NC2=O)c2ccc(CCCOCCCOCCCNCc3ccc(-n4cc(NC(=O)c5coc(-c6ccnc(NCC7CC7)c6)n5)c(C(F)F)n4)cc3)cc21` (centres unmarked) [I-407], the DC50 is < 50 nM. The value for `O=C1CCC(N2C(=O)c3cccc(N4CCN(CCOCCNC(=O)c5ccc(-n6cc(NC(=O)c7coc(-c8ccnc(NCC9CC9)c8)n7)c(C(F)F)n6)cc5)CC4)c3C2=O)C(=O)N1` (centres unmarked) [I-274] was 100 to 500 nM; that for `O=C1CCC(N2C(=O)c3cccc(NCCOCCOCCOCC(=O)N4C[C@H](OC(=O)[C@@H]5CCCN5)C[C@H]4C(=O)NCc4ccc(-n5cc(NC(=O)c6coc(-c7ccnc(NCC8CC8)c7)n6)c(C(F)F)n5)cc4)c3C2=O)C(=O)N1` (some centres unmarked) [I-289] was > 1000 nM. Next, `O=C1CCC(N2Cc3c(NC4CCN(CCOCCOCCNCc5ccc(-n6cc(NC(=O)c7coc(-c8ccnc(NCC9CC9)c8)n7)c(C(F)F)n6)cc5)CC4)cccc3C2=O)C(=O)N1` (centres unmarked) [I-384]: 500 to 1000 nM; `O=C1CCC(n2c(=O)n(CCOCCOCCNC(=O)c3ccc(-n4cc(NC(=O)c5coc(-c6ccnc(NCC7CC7)c6)n5)c(C(F)F)n4)cc3)c3ccccc32)C(=O)N1` (centres unmarked) [I-251]: < 50 nM. The value for `Cc1ncsc1-c1ccc(CNC(=O)[C@@H]2C[C@@H](O)CN2C(=O)[C@@H](NCCOCCOCCOCCNC(=O)c2nn(C)cc2NC(=O)c2coc(-c3ccnc(NCC(F)(F)F)c3)n2)C(C)(C)C)cc1` [I-295] was > 1000 nM. Regarding `Cn1c(=O)n(C2CCC(=O)NC2=O)c2ccc(CCCCOCCCCNCc3ccc(-n4cc(NC(=O)c5coc(-c6ccnc(NCC7CC7)c6)n5)c(C(F)F)n4)cc3)cc21` (centres unmarked) [I-411, 2-[2-(cyclopropylmethylamino)-4-pyridyl]-N-[3-(difluoromethyl)-1-[4-[[4-[4-[1-(2,6-dioxo-3-piperidyl)-3-methyl-2-oxo-benzimidazol-5-yl]butoxy]butylamino]methyl]phenyl]pyrazol-4-yl]oxazole-4-carboxamide], the DC50 was < 50 nM. In the case of `CNC(=O)c1nn(-c2ccc(CNCCOCCOCCNc3cccc4c3C(=O)N(C3CCC(=O)NC3=O)C4=O)cc2)cc1NC(=O)c1coc(-c2ccnc(NCC(F)(F)F)c2)n1` (centres unmarked) [I-400], the DC50 was < 50 nM. On to `Cn1cc(NC(=O)c2coc(-c3ccnc(NCC(F)(F)F)c3)n2)c(CNCCOCCOCCOCCNc2cccc3c2C(=O)N(C2CCC(=O)NC2=O)C3=O)n1` (centres unmarked) [I-408], for which the DC50 is > 1000 nM. Next, `Cn1c(=O)n(C2CCC(=O)NC2=O)c2cccc(CCCNCc3ccc(-n4cc(NC(=O)c5coc(-c6ccnc(NCC7CC7)c6)n5)c(C(F)F)n4)cc3)c21` (centres unmarked) [I-423]: > 1000 nM. For `Cn1c(=O)n(C2CCC(=O)NC2=O)c2ccc(CCCOCCCN3CCN(C4CCC(Nc5ncnn6ccc(C7CCOCC7)c56)CC4)CC3)cc21` (centres unmarked) [I-436, 3-[3-Methyl-2-oxo-5-[3-[3-[4-[4-[(5-tetrahydropyran-4-ylpyrrolo[2,1-f][1,2,4]triazin-4-yl)amino]cyclohexyl]piperazin-1-yl]propoxy]propyl]benzimidazol-1-yl]piperidine-2,6-dione], the DC50 is > 1000 nM. The value for `O=C1CCC(N2C(=O)c3cccc(N4CCN(CCOCCOCCOCCNCc5ccc(-n6cc(NC(=O)c7coc(-c8ccnc(NCC9CC9)c8)n7)c(C(F)F)n6)cc5)CC4)c3C2=O)C(=O)N1` (centres unmarked) [I-391] was 100 to 500 nM; that for `Cn1c(=O)n(C2CCC(=O)NC2=O)c2cccc(CCCOCCOCCNCc3ccc(-n4cc(NC(=O)c5cnn6ccc(N7CCNCC7)nc56)c(C(F)F)n4)cc3)c21` (centres unmarked) [I-446, N-[3-(difluoromethyl)-1-[4-[[2-[2-[3-[1-(2,6-dioxo-3-piperidyl)-3-methyl-2-oxo-benzimidazol-4-yl]propoxy]ethoxy]ethylamino]methyl]phenyl]pyrazol-4-yl]-5-piperazin-1-yl-pyrazolo[1,5-a]pyrimidine-3-carboxamide] was 100 to 500 nM. The value for `Cn1c(=O)n(C2CCC(=O)NC2=O)c2ccc(CCCOCCC(=O)N3CCN(C4CCC(Nc5ncnn6ccc(C7CCOCC7)c56)CC4)CC3)cc21` (centres unmarked) [I-437, 3-[3-Methyl-2-oxo-5-[3-[3-oxo-3-[4-[4-[(5-tetrahydropyran-4-ylpyrrolo[2,1-f][1,2,4]triazin-4-yl)amino]cyclohexyl]piperazin-1-yl]propoxy]propyl]benzimidazol-1-yl]piperidine-2,6-dione] was > 1000 nM; that for `CC1(C)CCN(c2nn(-c3ccc(C(=O)NCCOCCOCCNc4cccc5c4C(=O)N(C4CCC(=O)NC4=O)C5=O)cc3)cc2NC(=O)c2coc(-c3ccnc(NCC(F)(F)F)c3)n2)C1=O` (centres unmarked) [I-429, N-[3-(3,3-dimethyl-2-oxo-pyrrolidin-1-yl)-1-[4-[2-[2-[2-[[2-(2,6-dioxo-3-piperidyl)-1,3-dioxo-isoindolin-4-yl]amino]ethoxy]ethoxy]ethyl]carbamoyl]phenyl]pyrazol-4-yl-2-[2-(2,2,2-trifluoroethylamino)-4-pyridyl]oxazole-4-carboxamide] was > 1000 nM; that for `CN(CCOCCCc1cccc2c1C(=O)N(C1CCC(=O)NC1=O)C2=O)Cc1ccc(-n2cc(NC(=O)c3coc(-c4ccnc(NCC5CC5)c4)n3)c(C(N)=O)n2)cc1` (centres unmarked) [I-313] was < 50 nM.

`Cn1c(=O)n(C2CCC(=O)NC2=O)c2ccc(CCCOCCCNCc3ccc(-n4cc(NC(=O)c5coc(-c6ccnc(NCC7CC7)c6)n5)c(C(F)F)n4)cc3)cc21` (centres unmarked) [I-405]: the DC50 is < 50 nM. The value for `NC(=O)c1nn(-c2ccc(CNCCOCCOCCN3CCN(c4cccc5c4C(=O)N(C4CCC(=O)NC4=O)C5=O)CC3)cc2)cc1NC(=O)c1coc(-c2ccnc(NCC3CC3)c2)n1` (centres unmarked) [I-396] was 50 to 100 nM; that for `Cn1c(=O)n(C2CCC(=O)NC2=O)c2cccc(CCCOCCOCCNCc3ccc(-n4cc(NC(=O)c5cocn5)c(C(N)=O)n4)cc3)c21` (centres unmarked) [I-422] was > 1000 nM. As to `O=C1CCC(N2C(=O)c3cccc(NC4CCN(CCOCCOCCNCc5ccc(-n6cc(NC(=O)c7coc(-c8ccnc(NCC9CC9)c8)n7)c(C(F)F)n6)cc5)CC4)c3C2=O)C(=O)N1` (centres unmarked) [I-334], the DC50 lay within 50 to 100 nM. Next, `Cn1cc(NC(=O)c2coc(-c3ccnc(NCC(F)(F)F)c3)n2)c(C(=O)NCCOCCOCCOCCNc2cccc3c2C(=O)N(C2CCC(=O)NC2=O)C3=O)n1` (centres unmarked) [I-292]: > 1000 nM.
